Test results published in patent publication US9820957B2, “Methods of treating autoimmunity” (IM Therapeutics, Inc., priority 2016, dated 2017).

Assays:
[1] = test system: HLA-DQ8 antigen presenting cells with gliadin-responsive CD4 T cell receptor (TCR) transductant; test: Inhibition of DQ8 antigen presentation in vitro, gliadin-responsive TCR transductant, IL-2 ELISA; assay type: cell-based; details: for inhibition of gliadin-responsive TCR transductant (secreted IL-2): 4 hours with peptide and compound, then overnight with transductant; for IC50 compared between the enantiomers: gliadin-responsive TCR transductant
Description: (§1) Inhibition of DQ8 antigen presentation by the D- and L-enantiomers of α-methyldopa was tested and compared in vitro. HLA-DQ8 antigen presenting cells were cultured with a fixed concentration of peptide and a concentration of D- or L-α-methyldopa for 4 hours. TCR transductants were then added to each culture condition and cultured overnight. Secreted IL-2 from the TCR transductant was measured by ELISA for each condition.
(§2) In these figures, 0 represents the TCR transductant response to peptide without the addition of α-methyldopa. No antigen IL-2 responses (negative control) were very low at <2 pg/ml. Results are presented as mean+/− SEM.

[2] = cited from earlier work; for decarboxylation to α-methyl-dopamine in patients: Sjoerdsma et al. 1963, urine of treated patients
DQ8-restricted T cell = test: Pharmacodynamics in DQ8 transgenic mice: ex vivo splenocytes stimulating a DQ8-restricted T cell to deamidated gliadin peptide; details: 4 mg by oral gavage daily for 5 days
From the text: Ex vivo splenocytes were used to stimulate a DQ8-restricted T cell to a deamidated gliadin peptide.

[3] = test system: HLA-DQ8 antigen presenting cells with insulin responsive CD4 T cell receptor (TCR) transductant; test: Inhibition of DQ8 antigen presentation in vitro, insulin responsive TCR transductant, IL-2 ELISA; assay type: cell-based; details: for inhibition of insulin responsive TCR transductant (secreted IL-2): 4 hours with peptide and compound, then overnight with transductant; for IC50 compared between the enantiomers: insulin responsive TCR transductant
Description: as §1, §2

[4] = Oral pharmacokinetics in HLA-DQ8 transgenic mice, plasma by HPLC-MS; assay type: in vivo; details: oral gavage, 4 mg
Description: Separate cohorts of HLA-DQ8 transgenic mice (n=2) were gavaged with a specific dose of L- and D-α-methyldopa, followed by the collection of plasma 90 minutes later. […] Similarly, separate cohorts of mice (n=3) were gavaged with a specific enantiomer (D or L enantiomer) and dose (4 mg by gavage) of α-methyldopa followed by the collection of plasma at baseline, 1, 2, 4, 6, and 18 hours later. […] In these PK studies the Lower Limit of Quantification (LLOQ) was <2.5 ng/ml. Results are presented as mean+/− SEM.

Q: With `C[C@@](N)(Cc1ccc(O)c(O)c1)C(=O)O` [D-α-methyldopa, D-α-Methyl-3,4-dihydroxyphenylalanine] as the molecule, how does the “inhibition of gliadin-responsive TCR transductant (secreted IL-2)” value [1] read?
A: The value was “blocked in a dose-dependent manner”.

Q: And the “IC50 compared between the enantiomers” value [1]?
A: Its value is “statistically similar IC50 values”.

Q: And the “absorption in humans compared with the other isomer” value ([2]; Au et al. 1972)?
A: The value was “much less readily absorbed”.

Q: What about the “decarboxylation to α-methyl-dopamine in patients” value [2] of the same molecule?
A: Its value is “did not decarboxylate”.

Q: What about the pharmacologic activity ([2]; prior art view, Du et al., Gillespie et al. 1962) of the same molecule?
A: Its pharmacologic activity is “no pharmacologic activity”.

Q: And the “inhibition of the DQ8-restricted T cell response to deamidated gliadin peptide” value (DQ8-restricted T cell)?
A: Its value is “inhibition of the T cell response is observed”.

Q: What about the “response to positive control stimulus (anti-CD3)” value (DQ8-restricted T cell) of the same molecule?
A: The value was “not different between the groups”.

Q: What about the “inhibition of insulin responsive TCR transductant (secreted IL-2)” value [3] of the same molecule?
A: The value was “blocked in a dose-dependent manner”.

Q: And the “IC50 compared between the enantiomers” value [3]?
A: Its value is “statistically similar IC50 values”.

Q: What does the source list for `C[C@](N)(Cc1ccc(O)c(O)c1)C(=O)O` [L-α-methyldopa, L-α-Methyl-3,4-dihydroxyphenylalanine, reference compound]?
A: time to maximum plasma concentration (Tmax) compared with the other enantiomer [4]: slightly slower; inhibition of gliadin-responsive TCR transductant (secreted IL-2) [1]: blocked in a dose-dependent manner; IC50 compared between the enantiomers [1]: statistically similar IC50 values; decarboxylation to α-methyl-dopamine in patients [2]: α-methyl-dopamine did appear in the urine; inhibition of the DQ8-restricted T cell response to deamidated gliadin peptide (DQ8-restricted T cell): only for the D enantiomer; response to positive control stimulus (anti-CD3) (DQ8-restricted T cell): not different between the groups; inhibition of insulin responsive TCR transductant (secreted IL-2) [3]: blocked in a dose-dependent manner; IC50 compared between the enantiomers [3]: statistically similar IC50 values
